The values below come from patent US20260165982A1, “COMPOSITIONS AND METHODS FOR DELIVERY OF NUCLEIC ACID THERAPEUTICS” (Entrada Therapeutics, Inc., priority 2022, published 2026).

The test system of the test is HeLa cells. Nature of the test: LNP cellular uptake / eGFP mRNA expression by FACS flow cytometry. It counts as cell-based, Human. The conditions noted are these: eGFP mRNA cargo. Here is the method:
LNP cellular uptake for the LNP formulations in Table 10 was tested. HeLa cells (Human epithelial cells, ATCC) were seeded at 0.05×10^6 cells per well in 1000 μL DMEM media (Dulbecco's Modified Eagle Medium, GIBCO) containing 10% FBS (GIBCO) and 5% penicillin streptomycin (GIBCO) in 24-well plate. The LNP formulations of Table 10 containing the eGFP mRNA were prepared with a total treatment dose of 250 ng and 1000 ng eGFP mRNA per well in triplicates. The cells were incubated for 24 h at 37° C. Cells were then trypsinized and resuspended in PBS and centrifuged at 200 g for 5 min. The supernatant was removed, and the pelleted cells were redispersed in 500 μL of PBS+2% FBS per well and transferred to FACS tubes and read on a flow cytometry analyzer (BD FACSCanto™ II). The data presented are the mean fluorescent intensity of the signals from each cell treatment analyzed. For transfection efficiency, treated cells were gated for EGFP expression, and the data presented are the percentage of cells analyzed with higher EGFP expression than untreated cells. […] HeLa cells were treated with the various formulations for 24 hours before using fluorescence activated cell sorting (FACS) flow cytometry to quantify eGFP expression in the treated cells. The higher the mean fluorescence intensity, the greater the expression of eGFP, ant therefore, the greater the transfection efficiency.
In general terms: Flow cytometry measures light scatter and fluorescence of single cells or particles in a stream.

Molecules are shown by their SMILES.

For the compound `CCCCCCCCCCCOC(=O)CCCCCN(CCO)CCCCCCCC(=O)OC(CCCCCCCC)CCCCCCCC` [SM-102], the “efficacy (transfection), findings from all the experiments of Example 2” value was “more efficacious ionizable lipid than D-Lin-MC3-DMA”.
